In PMC7531004, “Discovery of gramicidin A analogues with altered activities by multidimensional screening of a one-bead-one-compound library” (Nature Communications, 2020):
Where a SMILES comes first, the peptide text is derived from it. [ ]: non-standard residue; d: D form. The star is where a group is joined. NHCH2CH2OH = OCCN*; For = O=C*

Key:
[1] = H+/Na+ transport assay of bead-derived peptides (one-point); assay type: biochemical; set-up: key: relative activity; mean of two control wells = 1.00; settings: bead-derived peptide solution, EYPC/EYPG LUVs;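 note: relative to parent gramicidin A activity set to 1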
Procedure, shortened: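 Miniaturized 96-well format. LUVs with entrapped pyranine (1.0 mM) were exposed to peptide for 30 min at RT. Intensities were expressed relative to full lysis by Triton X-100 and no treatment, with control-well mean = 1.00.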

[2] = test system: P388 mouse leukemia cells; settings: 92 h
Procedure, shortened: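 P388 cells at 1 × 10^4 cells/mL (final) were exposed to library peptides (stocks diluted 250-fold in RPMI1640/10% FBS) for 92 h at 37 °C, 5% CO2. Viable cells were counted by WST-1/1-methoxy PMS (4 h), absorbance 415 nm, and expressed as cell viability (%).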

[3] = test system: Streptococcus pyogenes SSI-9; assay: Antibacterial activity assay of bead-derived peptides (three concentrations); assay type: cell-based; set-up: key: +++: inhibition by the 640-fold diluted peptide solution; ++: inhibition by the 160-fold diluted solution; +: inhibition by the 40-fold diluted solution; -: no inhibition; settings: S. pyogenes, bead-derived peptide solution, three concentrations
Procedure, shortened: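 Undiluted, 4-fold and 16-fold DMSO-diluted peptide stocks; S. pyogenes SSI-9, 2 × 10^5 CFU, cation-adjusted MHB (50 mg/L Ca2+, 25 mg/L Mg2+) + 5% laked horse blood; 37 °C, 18 h; readout = cell pellet visible or not.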

| SMILES | H+/Na+ transport activity normalized against the value of 1 (1.00) [1] | cell viability/% [2] | antibacterial activity [3] |
| --- | --- | --- | --- |
| CC(C)C[C@@H](NC(=O)[C@H](C)NC(=O)[C@H](NC(=O)[C@H](C)NC(=O)CNC(=O)[C@@H](NC=O)C(C)C)[C@H](C)O)C(=O)N[C@H](C(=O)N[C@H](CC(C)C)C(=O)N[C@@H](Cc1c[nH]c2ccccc12)C(=O)N[C@H](CC(C)C)C(=O)N[C@@H](Cc1c[nH]c2ccccc12)C(=O)N[C@@H](C(=O)N[C@@H](Cc1c[nH]c2ccccc12)C(=O)N[C@H](CC(C)C)C(=O)N[C@@H](Cc1c[nH]c2ccccc12)C(=O)NCCO)C(C)C)C(C)C [compound 5329] (For-VGA[dT]A[dL]V[dL]W[dL]W[dV]W[dL]W-NHCH2CH2OH) | 1.26 | 100.0% | - |
| CC(C)C[C@@H](NC(=O)[C@H](C)NC(=O)[C@H](NC(=O)[C@H](C)NC(=O)CNC(=O)[C@@H](NC=O)C(C)C)C(C)C)C(=O)N[C@H](C(=O)N[C@H](CC(C)C)C(=O)N[C@@H](Cc1c[nH]c2ccccc12)C(=O)N[C@H](CC(C)C)C(=O)N[C@@H](Cc1c[nH]c2ccccc12)C(=O)N[C@@H](C(=O)N[C@@H](Cc1c[nH]c2ccccc12)C(=O)N[C@@H](C(=O)N[C@@H](Cc1c[nH]c2ccccc12)C(=O)NCCO)[C@H](C)O)C(C)C)C(C)C [compound 5370] (For-VGA[dV]A[dL]V[dL]W[dL]W[dV]W[dT]W-NHCH2CH2OH) | 1.18 | 100.0% | ++ |
| CNC(=O)C[C@@H](NC(=O)[C@H](Cc1c[nH]c2ccccc12)NC(=O)[C@@H](CC(C)C)NC(=O)[C@@H](NC(=O)[C@@H](CC(C)C)NC(=O)[C@H](C)NC(=O)[C@H](NC(=O)[C@H](C)NC(=O)CNC(=O)[C@@H](NC=O)C(C)C)C(C)C)C(C)C)C(=O)N[C@@H](Cc1c[nH]c2ccccc12)C(=O)N[C@@H](C(=O)N[C@@H](Cc1c[nH]c2ccccc12)C(=O)N[C@@H](C(=O)N[C@@H](Cc1c[nH]c2ccccc12)C(=O)NCCO)C(C)C)C(C)C [compound 5380] (For-VGA[dV]A[dL]V[dL]W[dD](NHMe)W[dV]W[dV]W-NHCH2CH2OH) | 1.05 | 100.0% | - |
| CC(C)C[C@@H](NC(=O)[C@H](C)NC(=O)CNC(=O)[C@@H](NC=O)C(C)C)C(=O)N[C@@H](C)C(=O)N[C@@H](C(=O)N[C@H](C(=O)N[C@@H](C(=O)N[C@@H](Cc1c[nH]c2ccccc12)C(=O)N[C@@H](C(=O)N[C@@H](Cc1c[nH]c2ccccc12)C(=O)N[C@H](CC(C)C)C(=O)N[C@@H](Cc1c[nH]c2ccccc12)C(=O)N[C@@H](C(=O)N[C@@H](Cc1c[nH]c2ccccc12)C(=O)NCCO)C(C)C)C(C)C)C(C)C)C(C)C)C(C)C [compound 5393] (For-VGA[dL]A[dV]V[dV]W[dV]W[dL]W[dV]W-NHCH2CH2OH) | 1.32 | 100.0% | + |
| CC(C)C[C@@H](NC(=O)[C@H](C)NC(=O)[C@H](NC(=O)[C@H](C)NC(=O)CNC(=O)[C@@H](NC=O)C(C)C)C(C)C)C(=O)N[C@H](C(=O)N[C@@H](C(=O)N[C@@H](Cc1c[nH]c2ccccc12)C(=O)N[C@@H](C(=O)N[C@@H](Cc1c[nH]c2ccccc12)C(=O)N[C@H](CC(C)C)C(=O)N[C@@H](Cc1c[nH]c2ccccc12)C(=O)N[C@H](CC(C)C)C(=O)N[C@@H](Cc1c[nH]c2ccccc12)C(=O)NCCO)C(C)C)C(C)C)C(C)C [compound 5463] (For-VGA[dV]A[dL]V[dV]W[dV]W[dL]W[dL]W-NHCH2CH2OH) | 1.11 | 100.0% | ++ |
| CC(C)C[C@@H](NC(=O)[C@H](C)NC(=O)CNC(=O)[C@@H](NC=O)C(C)C)C(=O)N[C@@H](C)C(=O)N[C@@H](C(=O)N[C@H](C(=O)N[C@@H](C(=O)N[C@@H](Cc1c[nH]c2ccccc12)C(=O)N[C@@H](C(=O)N[C@@H](Cc1c[nH]c2ccccc12)C(=O)N[C@H](CC(C)C)C(=O)N[C@@H](Cc1c[nH]c2ccccc12)C(=O)N[C@H](CC(C)C)C(=O)N[C@@H](Cc1c[nH]c2ccccc12)C(=O)NCCO)C(C)C)[C@H](C)O)C(C)C)C(C)C [compound 5482] (For-VGA[dL]A[dV]V[dT]W[dV]W[dL]W[dL]W-NHCH2CH2OH) | 1.25 | 100.0% | - |
| CC(C)C[C@@H](NC(=O)[C@H](C)NC(=O)CNC(=O)[C@@H](NC=O)C(C)C)C(=O)N[C@@H](C)C(=O)N[C@H](CC(C)C)C(=O)N[C@H](C(=O)N[C@@H](C(=O)N[C@@H](Cc1c[nH]c2ccccc12)C(=O)N[C@@H](C(=O)N[C@@H](Cc1c[nH]c2ccccc12)C(=O)N[C@@H](C(=O)N[C@@H](Cc1c[nH]c2ccccc12)C(=O)N[C@@H](C(=O)N[C@@H](Cc1c[nH]c2ccccc12)C(=O)NCCO)C(C)C)C(C)C)C(C)C)C(C)C)C(C)C [compound 5488] (For-VGA[dL]A[dL]V[dV]W[dV]W[dV]W[dV]W-NHCH2CH2OH) | 1.23 | 36.4% | + |
| CNC(=O)C[C@@H](NC(=O)[C@@H](NC(=O)[C@@H](CC(C)C)NC(=O)[C@H](C)NC(=O)[C@@H](CC(C)C)NC(=O)[C@H](C)NC(=O)CNC(=O)[C@@H](NC=O)C(C)C)C(C)C)C(=O)N[C@@H](Cc1c[nH]c2ccccc12)C(=O)N[C@H](CC(C)C)C(=O)N[C@@H](Cc1c[nH]c2ccccc12)C(=O)N[C@H](CC(C)C)C(=O)N[C@@H](Cc1c[nH]c2ccccc12)C(=O)N[C@@H](C(=O)N[C@@H](Cc1c[nH]c2ccccc12)C(=O)NCCO)C(C)C [compound 5491] (For-VGA[dL]A[dL]V[dD](NHMe)W[dL]W[dL]W[dV]W-NHCH2CH2OH) | 1.24 | 100.0% | - |
| CC(C)C[C@@H](NC(=O)[C@H](C)NC(=O)CNC(=O)[C@@H](NC=O)C(C)C)C(=O)N[C@@H](C)C(=O)N[C@H](CC(C)C)C(=O)N[C@H](C(=O)N[C@H](CC(C)C)C(=O)N[C@@H](Cc1c[nH]c2ccccc12)C(=O)N[C@@H](C(=O)N[C@@H](Cc1c[nH]c2ccccc12)C(=O)N[C@H](CC(C)C)C(=O)N[C@@H](Cc1c[nH]c2ccccc12)C(=O)N[C@@H](C(=O)N[C@@H](Cc1c[nH]c2ccccc12)C(=O)NCCO)[C@H](C)O)C(C)C)C(C)C [compound 5508] (For-VGA[dL]A[dL]V[dL]W[dV]W[dL]W[dT]W-NHCH2CH2OH) | 1.19 | 100.0% | - |
| CC(C)C[C@@H](NC(=O)[C@H](C)NC(=O)[C@H](NC(=O)[C@H](C)NC(=O)CNC(=O)[C@@H](NC=O)C(C)C)[C@H](C)O)C(=O)N[C@H](C(=O)N[C@@H](C(=O)N[C@@H](Cc1c[nH]c2ccccc12)C(=O)N[C@H](CC(C)C)C(=O)N[C@@H](Cc1c[nH]c2ccccc12)C(=O)N[C@H](CC(C)C)C(=O)N[C@@H](Cc1c[nH]c2ccccc12)C(=O)N[C@@H](C(=O)N[C@@H](Cc1c[nH]c2ccccc12)C(=O)NCCO)C(C)C)C(C)C)C(C)C [compound 5522] (For-VGA[dT]A[dL]V[dV]W[dL]W[dL]W[dV]W-NHCH2CH2OH) | 1.27 | 100.0% | - |
